The record followed here is patent US12390465B2, “Coumarin derivative for therapy or prophylaxis of a cell proliferative disorder” (The Institute of Cancer Research: Royal Cancer Hospital, priority 2017, dated 2025).

Holding throughout (format): in vivo, human
The subject of data set [1] is KRAS mutant and NRAS mutant IgG lambda multiple myeloma. In words: Example 1: oral treatment of a multiple myeloma patient, 3 weeks on/1 week off. Particulars: for FLCk: pre 325 mg/L, 4 mg twice weekly. The procedure:
A potassium salt of compound (I) (the potassium salt being also referred to as the “IMP” in this example) was orally administered to a patient with KRAS mutant and NRAS mutant IgG lambda multiple myeloma at a dose of 4 mg twice weekly (Tuesday and Friday) in 4-week cycles consisting of 3 weeks of treatment followed by 1 week of rest (3 weeks on/1 week off). Dexamethasone was not used in combination with the IMP.
The patient started dosing on 29 Nov., 2016. […] initial and ongoing toxicity was intermittent Grade 1 diarrhoea that may be related to the IMP.
The patient had previously been treated with: • Autologous stem cell transplant • Proteasome inhibitor • Immunomodulatory drug • Cyclophosphamide+Dexamethasone+Thalidomide • Melphalan • Lenalidomide • Cyclophosphamide+Bortezomib • Dexamethasone • Spine T3-T12, 5 fractions (radiotherapy)

For data set [2], the system named is KRAS mutant non-small-cell lung cancer. Briefly: Example 2: oral treatment of a non-small-cell lung cancer patient with stepwise dose reduction. The settings on record: for best response, reduction in target lesions by RECIST 1.1: CT scan. Here is the method: A potassium salt of compound (I) (the potassium salt being also referred to as the “IMP” in this example) was orally administered to a patient with KRAS mutant non-small-cell lung cancer.
The patient started treatment on 1 Sep., 2014. The IMP was first administered at a dose of 4 mg twice weekly in 4-week cycles consisting of 4 weeks of treatment (4 mg 4 wk on). In Cycle 9, due to Grade 3 maculopapular rash, the dosage was reduced to 3.2 mg twice weekly in 4-week cycles (3.2 mg 4 wk on). In Cycle 22, due to Grade 3 facial rash, the dosage was reduced again to a 3 weeks on/1 week off schedule with 3.2 mg twice weekly (3.2 mg 3 wk on/1 wk off).
The horizontal axis (X-axis) represents the treatment cycle number and the vertical axis (Y-axis) represents the rate of change of tumor size from baseline. The tumor size was measured by CT scan. The best responses of the dosing schedules 4 mg 4 wk on, 3.2 mg 4 wk on, and 3.2 mg 3 wk on/1 wk off were 58% reduction, 61% reduction, and 68% reduction in target lesions by RECIST 1.1, respectively. Treatment of the patient by the IMP is being continued as of 18 Apr., 2018 (at Cycle 48, equivalent to 3.6 years) without any Grade 2 or higher rash being observed.
The patient had previously been treated with: • Carboplatin/Pemetrexed • Pemetrexed • Docetaxel • Pleurodesis (October 2012) (surgery)

Data set [3] relates to HRAS mutant apocrine adenocarcinoma of the scalp. In words: Example 3: oral treatment of an apocrine adenocarcinoma patient following the dosing guidance. Particulars: for reduction in tumor size: CT scan. Here is the method:
A potassium salt of compound (I) (the potassium salt being also referred to as the “IMP” in this example) was orally administered to a patient with HRAS mutant apocrine adenocarcinoma of the scalp. Apocrine adenocarcinoma of the scalp is a cutaneous sweat gland carcinoma. The patient was diagnosed in 2014, and had radiotherapy and surgery twice before treatment with the IMP.
Treatment of the patient by the IMP was started on 8th Jan., 2018 at a dose of 4 mg twice weekly in 4-week cycles. In Cycle 1 Week 3, the patient had Grade 2 acneiform rash and Grade 2 diarrhoea and thus the dosage was reduced to a 3 weeks on/1 week off schedule with 4 mg twice weekly. The grade of acneiform rash was one (1) in Cycle 2 Day 1, […] in Cycle 2 Day 22, and two (2) in Cycle 3 Day 1. Thus, the dose at Cycle 3 Day 1 was not reduced to 3.2 mg and was determined as 4 mg.
Treatment of the patient by the IMP is ongoing as of 30th Apr., 2018 (Cycle 5 Day 1) without any Grade 2 or higher rash or diarrhoea being observed.

The next data set relates to solid cancers. Briefly: Earlier dosing regimen (twice weekly, 4 mg per administration) in patients. The settings on record: some cases. The procedure:
In regard to the usage and dosage of compound (I) or a salt thereof, a potassium salt of compound (I) is known to be administered to patients with solid cancers such as non-small-cell lung cancer, ovarian cancer, endometrial cancer, and colorectal cancer twice weekly at a dose of 4 mg per administration (see non patent document 1).

[4] abbreviates: 4 mg twice weekly in 4-week cycles, Cycle 1 Week 3.

Each structure is given as a SMILES string.

In the case of `CNS(=O)(=O)[N-]c1nccc(Cc2c(C)c3ccc(Oc4ncccn4)cc3oc2=O)c1F.[K+]` [IMP], the “rash related to the IMP (grade)” value in data set [1] (4 mg twice weekly oral, no dexamethasone) is recorded as 2 Grade. In addition, the “diarrhoea (toxicity grade)” value in data set [1] (4 mg twice weekly oral, no dexamethasone, initial and ongoing, intermittent, may be related to the IMP) worked out at 1 Grade. Moreover, the “response as per IMWG criteria” value in data set [1] (4 mg twice weekly oral, ongoing) is “partial response”. Besides, the FLCk in data set [1] (after 1 cycle) was found to be 161 mg/L; in data set [1] (after 2 cycles), 264 mg/L. For the same compound, the “rash (grade) after the reductions” value in data set [2] (3.2 mg twice weekly, 3 wk on/1 wk off) came to 1 Grade. In addition, the “facial rash (grade)” value in data set [2] (3.2 mg twice weekly, 4 wk on, Cycle 22) came out at 3 Grade. Moreover, in data set [2] (4 mg twice weekly, 4 wk on, Cycle 9), the “maculopapular rash (grade)” value is on record as 3 Grade. Besides, in data set [2] (as of Cycle 48 (3.6 years)), the “rash observed (grade) during continued treatment” value is reported as below 2 Grade. In data set [2] (maintained at Cycle 40, 3.2 mg 3 wk on/1 wk off), the “response by RECIST 1.1” value was “partial response”. The “best response, reduction in target lesions by RECIST 1.1” value in data set [2] (schedule 3.2 mg 3 wk on/1 wk off) is reported as 68%; in data set [2] (schedule 3.2 mg 4 wk on) it was 61%; in data set [2] (schedule 4 mg 4 wk on) it was 58%. Further, the “acneiform rash (grade)” value in data set [3] (setting [4]) came to 2 Grade; in data set [3] (4 mg twice weekly, 3 weeks on/1 week off, Cycle 2 Day 1), 1 Grade; in data set [3] (4 mg twice weekly, 3 weeks on/1 week off, Cycle 2 Day 22), 3 Grade; in data set [3] (4 mg twice weekly, 3 weeks on/1 week off, Cycle 3 Day 1), 2 Grade. In addition, the “diarrhoea (grade)” value in data set [3] (setting [4]) turned out to be 2 Grade. Further, the “response by RECIST 1.1 (tumor size by CT scan)” value in data set [3] (4 mg twice weekly, 3 weeks on/1 week off) is reported as “partial response”. Also, the results for the “reduction in tumor size” value in data set [3] (Cycle 2 Day 22) and in data set [3] (Cycle 4 Day 15) were 54% and 58%, respectively. The “diarrhoea observed (grade) during ongoing treatment” value in data set [3] (as of Cycle 5 Day 1) is below 2 Grade. Further, the “rash observed (grade) during ongoing treatment” value in data set [3] (as of Cycle 5 Day 1) is listed as below 2 Grade.

As to `CNS(=O)(=O)Nc1nccc(Cc2c(C)c3ccc(Oc4ncccn4)cc3oc2=O)c1F` [compound (I)], the “adverse event leading to unplanned dose interruption and/or dose reduction” value in the data set with solid cancers is “worsening of skin rash”.
